# Test results: PMC4256282, “Profound Activity of the Anti-cancer Drug Bortezomib against Echinococcus multilocularis Metacestodes Identifies the Proteasome as a Novel Drug Target for Cestodes” (PLoS Neglected Tropical Diseases, 2014)
# Columns and labels:
# [1] = target: T1, proteasome subunit beta 5 of E. multilocularis (EmPSMB5, EmuJ_000590200_1) (Echinococcus multilocularis, UniProt A0A068Y5K9); test: biochemical
# T1 sequence (A0A068Y5K9 66-269): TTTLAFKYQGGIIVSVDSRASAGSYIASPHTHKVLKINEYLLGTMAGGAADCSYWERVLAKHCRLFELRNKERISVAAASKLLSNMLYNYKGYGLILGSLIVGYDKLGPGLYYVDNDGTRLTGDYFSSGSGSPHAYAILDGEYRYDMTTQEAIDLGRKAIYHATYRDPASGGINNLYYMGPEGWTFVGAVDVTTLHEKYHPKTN
# bovine chymotrypsin = bovine chymotrypsin (Bos taurus, UniProt P00766); test: in-gel fluorescent zymography with SLLVT-AMC, chymotrypsin […] ng per lane, single BTZ concentration; type: biochemical
compound,measurement,setting,value
"CC(C)C[C@H](NC(=O)[C@H](Cc1ccccc1)NC(=O)c1cnccn1)B(O)O [BTZ, bortezomib]",IC50,[1],0.76 µM
same,"in-gel fluorescent zymography with SLLVT-AMC, chymotrypsin 5 ng per lane, single",bovine chymotrypsin,"BTZ can inhibit also other targets, such as for example chymotrypsin (as shown in the control of Figure 7B)"
